PubChem BioAssay (NCI)
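Each compound was tested at five concentrations against cells in 96-well plates for 48 hours. GI50 = concentration required for 50% inhibition of growth. TGI is the concentration that stops growth completely.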

Tests used:
Assay in all cases: NCI anticancer screen, dose series, 48 h
786-0 renal = system: 786-0 renal
CCRF-CEM leukemia = system: CCRF-CEM leukemia
HCT-116 colon = system: HCT-116 colon
HOP-62 NSCLC = system: HOP-62 NSCLC
K-562 leukemia = system: K-562 leukemia
LOX IMVI melanoma = system: LOX IMVI melanoma
OVCAR-4 ovarian = system: OVCAR-4 ovarian
OVCAR-5 ovarian = system: OVCAR-5 ovarian
PC-3 prostate = system: PC-3 prostate
SF-268 CNS = system: SF-268 CNS
SK-MEL-28 melanoma = system: SK-MEL-28 melanoma
UACC-257 melanoma = system: UACC-257 melanoma
UO-31 renal = system: UO-31 renal

SMILES | TGI (786-0 renal) | TGI (CCRF-CEM leukemia) | TGI (HCT-116 colon) | TGI (HOP-62 NSCLC) | TGI (K-562 leukemia) | TGI (LOX IMVI melanoma) | TGI (OVCAR-4 ovarian) | TGI (OVCAR-5 ovarian) | TGI (PC-3 prostate) | TGI (SF-268 CNS) | TGI (SK-MEL-28 melanoma) | TGI (UACC-257 melanoma) | TGI (UO-31 renal) | GI50 (HCT-116 colon) | GI50 (PC-3 prostate)
O=[N+]([O-])c1cc2ccc1OCc1cccc(n1)COc1ccc(cc1[N+](=O)[O-])C=NCCCCCCCCN=C2 | > 100 µM | > 100 µM | > 100 µM | > 100 µM | > 100 µM | > 100 µM | > 100 µM | > 100 µM | > 100 µM | > 100 µM | > 100 µM | > 100 µM | > 100 µM | – | –
CC1(C)N([O-])[N+](=O)C1(Br)c1ccccc1 (stereo not drawn) | > 100 µM | > 100 µM | > 100 µM | > 100 µM | > 100 µM | > 100 µM | > 100 µM | > 100 µM | > 100 µM | > 100 µM | > 100 µM | > 100 µM | > 100 µM | – | –
Cc1ccc(C2=Nn3c(nc4sc5c(c4c3=O)CCCC5)SC2)cc1 | > 100 µM | > 100 µM | > 100 µM | > 100 µM | > 100 µM | > 100 µM | > 100 µM | > 100 µM | > 100 µM | > 100 µM | > 100 µM | > 100 µM | > 100 µM | – | –
O=c1cc(-c2ccc3ccccc3c2)[nH]c2ncccc12 | > 100 µM | > 100 µM | > 100 µM | > 100 µM | 12 µM | > 100 µM | > 100 µM | > 100 µM | > 100 µM | > 100 µM | > 100 µM | > 100 µM | > 100 µM | 3.83 µM | 10.4 µM
CCC1(CC)C(=O)NN(C(=O)c2ccc(Cl)cc2)C1=O | > 100 µM | > 100 µM | > 100 µM | > 100 µM | > 100 µM | > 100 µM | > 100 µM | > 100 µM | > 100 µM | > 100 µM | > 100 µM | > 100 µM | > 100 µM | – | –
Oc1ccccc1-c1n[nH]c(-c2ccccc2O)n1 | > 100 µM | > 100 µM | > 100 µM | > 100 µM | > 100 µM | > 100 µM | > 100 µM | > 100 µM | 4.72 µM | > 100 µM | > 100 µM | – | > 100 µM | – | –
O=C(/N=C1/OC(CN2CCOCC2)CN1C(=O)Nc1ccccc1)Nc1ccccc1 (stereo not drawn) | > 100 µM | > 100 µM | > 100 µM | > 100 µM | > 100 µM | > 100 µM | > 100 µM | > 100 µM | > 100 µM | > 100 µM | > 100 µM | > 100 µM | > 100 µM | – | –
CN(C(=O)c1cc2c(s1)sc1c(=O)n(C)c3ccccc3c12)c1ccccc1 | > 100 µM | > 100 µM | > 100 µM | – | > 100 µM | > 100 µM | > 100 µM | > 100 µM | > 100 µM | – | > 100 µM | > 100 µM | 24.5 µM | – | –
